Data from patent US7301033B2, “PPAR-activating compound” (Kowa Co., Ltd., priority 2005, dated 2007).

molecular target: T1, human PPARα (Homo sapiens, UniProt Q07869); experiment: Gal4-human PPARα chimera luciferase transfection assay in COS cells; assay type: cell-based; conditions: compound added at 1 μM, luciferase activity with WY14643 10 μM given as 10.0, 16 hours
T1 construct: 166th to 467th amino acids of human PPARα; expressed in transfected cells; host or cells: COS cells (African green monkey kidney)
T1 sequence (Q07869 166-467): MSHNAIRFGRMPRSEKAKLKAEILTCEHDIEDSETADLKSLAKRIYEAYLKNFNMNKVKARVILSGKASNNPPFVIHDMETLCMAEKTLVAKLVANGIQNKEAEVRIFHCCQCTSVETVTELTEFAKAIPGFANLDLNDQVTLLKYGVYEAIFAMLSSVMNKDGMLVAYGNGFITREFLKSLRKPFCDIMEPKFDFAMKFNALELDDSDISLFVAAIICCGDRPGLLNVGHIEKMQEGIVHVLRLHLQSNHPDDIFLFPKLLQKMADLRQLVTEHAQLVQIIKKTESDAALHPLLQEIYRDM
Description: (§1) The PPAR receptor-activating effect of the compound of the present invention represented by the formula (1) was measured by a method described below (Proc. Natl. Acad. Sci., 92, pp 7297-7301, 1995; Journal of Lipid Research, 40, pp 2099-2110, 1999; and Proc. Natl. Acad. Sci, 98, pp 5306-5311, 2001).
(§2) All the transfection assays were conducted using African green monkey kidney-derived cell line COS cells. The COS cells were cultured at 5% CO2 concentration using a DMEM medium containing 10% fetal bovine serum, glutamic acid, and an antibiotic as a culture solution.
(§3) Gal4-human PPARs chimeric constructs which were fused the DNA-binding region of yeast transcription factor Gal4 with the ligand-binding region of human PPARs were used as an expression vector. A chimera where 1st to 147th amino acids of the Gal4 transcription factor were fused with 166th to 467th amino acids of human PPARα, with 182nd to 505th amino acids of human PPARγ2, or with 137th to 441st amino acids of human PPARδ was used as the chimera for each isoform. A reporter vector used was firefly luciferase whose promoter region contains five Gal4 recognition sequences. The plasmids were transfected into the cells by a method using Lipofectamine. In addition, a β-galactosidase expression vector was used as an internal standard.
(§4) After the transfection into the cells, the medium was substituted with a DMEM medium (containing 0.2% serum) supplemented with the compound, in which the cells were then cultured for additional 16 hours. Thereafter, luciferase activity and β-galactosidase activity in the cell lysate were measured.
(§5) In the present experiment, dimethyl sulfoxide (DMSO) was used in the dissolution and dilution of the compound. When the cells were treated, the DMSO concentration in the DMEM medium (containing 0.2% serum) was adjusted to 0.1%.

SMILES	hPPAR; Relative activity α
O=C(O)c1ccccc1SCCCCCN(Cc1ccc(Cl)cc1)c1nc2ccccc2o1 [Example 98, 2-[5-[N-(Benzoxazol-2-yl)-N-4-chlorobenzyl]aminopentylthio]benzoic acid]	14.7
O=C(O)c1ccccc1SCCCCCN(CCCOc1ccccc1)c1nc2ccccc2o1 [Example 105, 2-[5-[N-(Benzoxazol-2-yl)-N-3-phenoxypropyl]aminopentylthio]benzoic acid]	25.3
O=C(O)c1ccccc1SCCCCN(CCCc1ccccc1)c1nc2ccccc2o1 [Example 97, 2-[4-[N-(Benzoxazol-2-yl)-N-3-phenylpropyl]aminobutylthio]benzoic acid]	11.6
O=C(O)c1ccccc1SCCN(Cc1ccccc1[N+](=O)[O-])c1nc2ccccc2o1 [Example 74, 2-[2-[N-(Benzoxazol-2-yl)-N-2-nitrobenzyl]aminoethylthio]benzoic acid]	10.2
CCCCCCCCN(CCCCCS(=O)(=O)c1ccccc1C(=O)O)c1nc2ccccc2o1 [Example 122, 2-[5-[N-(Benzoxazol-2-yl)-N-n-octyl]aminopentylsulfonyl]benzoic acid]	12.2
CCCCCCN(CCCCOc1ccc(C(=O)O)cc1)c1nc2ccccc2o1 [Example 60, 4-[4-[N-(Benzoxazol-2-yl)-N-n-hexyl]aminobutoxy]benzoic acid]	11.9
O=C(O)c1ccccc1OCCCCN(CCOc1ccccc1)c1nc2ccccc2o1 [Example 52, 2-[4-[N-(Benzoxazol-2-yl)-N-2-phenoxyethyl]aminobutoxy]benzoic acid]	13.8
CCCCCCN(CCCCSc1ccccc1C(=O)O)c1nc2ccccc2o1 [Example 93, 2-[4-[N-(Benzoxazol-2-yl)-N-n-hexyl]aminobutylthio]benzoic acid]	12.3
CN(CCCCSc1ccccc1C(=O)O)c1nc2ccccc2s1 [Example 109, 2-[4-[N-(Benzothiazol-2-yl)-N-methyl]aminobutylthio]benzoic acid]	12.1
CCCCCCCCN(CCSc1ccccc1C(=O)O)c1nc2ccccc2o1 [Example 78, 2-[2-[N-(Benzoxazol-2-yl)-N-n-octyl]aminoethylthio]benzoic acid]	20.8
CCCCCCCN(CCCOc1cccc(C(=O)O)c1)c1nc2ccccc2o1 [Example 19, 3-[3-[N-(Benzoxazol-2-yl)-N-n-heptyl]aminopropoxy]benzoic acid]	15.1
CCN(CCCCCSc1ccccc1C(=O)O)c1nc2ccccc2o1 [Example 99, 2-[5-[N-(Benzoxazol-2-yl)-N-ethyl]aminopentylthio]benzoic acid]	16.8

molecular target: T2, human PPARγ2 (Homo sapiens, UniProt P37231); experiment: Gal4-human PPARγ2 chimera luciferase transfection assay in COS cells; assay type: cell-based; conditions: compound added at 1 μM, luciferase activity with rosiglitazone 1 μM given as 10.0, 16 hours
T2 construct: with 182nd to 505th amino acids of human PPARγ2; expressed in transfected cells; host or cells: COS cells (African green monkey kidney)
T2 sequence (P37231 182-505): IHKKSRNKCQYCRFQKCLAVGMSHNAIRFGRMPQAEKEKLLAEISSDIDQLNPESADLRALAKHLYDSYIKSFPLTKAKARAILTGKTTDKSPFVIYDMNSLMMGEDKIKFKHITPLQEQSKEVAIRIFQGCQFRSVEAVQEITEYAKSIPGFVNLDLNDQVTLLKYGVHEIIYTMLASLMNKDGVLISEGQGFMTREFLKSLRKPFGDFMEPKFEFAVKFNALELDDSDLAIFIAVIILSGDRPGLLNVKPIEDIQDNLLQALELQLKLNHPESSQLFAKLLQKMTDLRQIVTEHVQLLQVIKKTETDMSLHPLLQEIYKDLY
Description: as §1, §2, §3, §4, §5

SMILES	hPPAR; Relative activity γ
O=C(O)c1ccccc1SCCCCCN(Cc1ccc(Cl)cc1)c1nc2ccccc2o1 [Example 98, 2-[5-[N-(Benzoxazol-2-yl)-N-4-chlorobenzyl]aminopentylthio]benzoic acid]	3.3
O=C(O)c1ccccc1SCCCCCN(CCCOc1ccccc1)c1nc2ccccc2o1 [Example 105, 2-[5-[N-(Benzoxazol-2-yl)-N-3-phenoxypropyl]aminopentylthio]benzoic acid]	2.5
O=C(O)c1ccccc1SCCCCN(CCCc1ccccc1)c1nc2ccccc2o1 [Example 97, 2-[4-[N-(Benzoxazol-2-yl)-N-3-phenylpropyl]aminobutylthio]benzoic acid]	4.6
O=C(O)c1ccccc1SCCN(Cc1ccccc1[N+](=O)[O-])c1nc2ccccc2o1 [Example 74, 2-[2-[N-(Benzoxazol-2-yl)-N-2-nitrobenzyl]aminoethylthio]benzoic acid]	0.7
CCCCCCCCN(CCCCCS(=O)(=O)c1ccccc1C(=O)O)c1nc2ccccc2o1 [Example 122, 2-[5-[N-(Benzoxazol-2-yl)-N-n-octyl]aminopentylsulfonyl]benzoic acid]	2.3
CCCCCCN(CCCCOc1ccc(C(=O)O)cc1)c1nc2ccccc2o1 [Example 60, 4-[4-[N-(Benzoxazol-2-yl)-N-n-hexyl]aminobutoxy]benzoic acid]	1.8
O=C(O)c1ccccc1OCCCCN(CCOc1ccccc1)c1nc2ccccc2o1 [Example 52, 2-[4-[N-(Benzoxazol-2-yl)-N-2-phenoxyethyl]aminobutoxy]benzoic acid]	2.1
CCCCCCN(CCCCSc1ccccc1C(=O)O)c1nc2ccccc2o1 [Example 93, 2-[4-[N-(Benzoxazol-2-yl)-N-n-hexyl]aminobutylthio]benzoic acid]	4.1
CN(CCCCSc1ccccc1C(=O)O)c1nc2ccccc2s1 [Example 109, 2-[4-[N-(Benzothiazol-2-yl)-N-methyl]aminobutylthio]benzoic acid]	0.8
CCCCCCCCN(CCSc1ccccc1C(=O)O)c1nc2ccccc2o1 [Example 78, 2-[2-[N-(Benzoxazol-2-yl)-N-n-octyl]aminoethylthio]benzoic acid]	2.1
CCCCCCCN(CCCOc1cccc(C(=O)O)c1)c1nc2ccccc2o1 [Example 19, 3-[3-[N-(Benzoxazol-2-yl)-N-n-heptyl]aminopropoxy]benzoic acid]	1.7
CCN(CCCCCSc1ccccc1C(=O)O)c1nc2ccccc2o1 [Example 99, 2-[5-[N-(Benzoxazol-2-yl)-N-ethyl]aminopentylthio]benzoic acid]	2.2

molecular target: T3, human PPARδ (Homo sapiens, UniProt Q03181); experiment: Gal4-human PPARδ chimera luciferase transfection assay in COS cells; assay type: cell-based; conditions: compound added at 1 μM, luciferase activity with GW501516 1 μM given as 10.0, 16 hours
T3 construct: with 137th to 441st amino acids of human PPARδ; expressed in transfected cells; host or cells: COS cells (African green monkey kidney)
T3 sequence (Q03181 137-441): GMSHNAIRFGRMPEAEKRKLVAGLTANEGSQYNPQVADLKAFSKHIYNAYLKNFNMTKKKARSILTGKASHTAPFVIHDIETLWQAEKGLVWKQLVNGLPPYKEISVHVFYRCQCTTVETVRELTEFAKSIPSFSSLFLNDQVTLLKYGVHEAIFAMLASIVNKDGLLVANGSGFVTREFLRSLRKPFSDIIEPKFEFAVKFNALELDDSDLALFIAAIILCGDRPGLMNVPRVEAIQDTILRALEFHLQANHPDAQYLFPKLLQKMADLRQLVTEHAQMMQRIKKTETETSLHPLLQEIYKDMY
Description: as §1, §2, §3, §4, §5

SMILES	hPPAR; Relative activity δ
O=C(O)c1ccccc1SCCCCCN(Cc1ccc(Cl)cc1)c1nc2ccccc2o1 [Example 98, 2-[5-[N-(Benzoxazol-2-yl)-N-4-chlorobenzyl]aminopentylthio]benzoic acid]	0.7
O=C(O)c1ccccc1SCCCCCN(CCCOc1ccccc1)c1nc2ccccc2o1 [Example 105, 2-[5-[N-(Benzoxazol-2-yl)-N-3-phenoxypropyl]aminopentylthio]benzoic acid]	4.2
O=C(O)c1ccccc1SCCCCN(CCCc1ccccc1)c1nc2ccccc2o1 [Example 97, 2-[4-[N-(Benzoxazol-2-yl)-N-3-phenylpropyl]aminobutylthio]benzoic acid]	0.2
O=C(O)c1ccccc1SCCN(Cc1ccccc1[N+](=O)[O-])c1nc2ccccc2o1 [Example 74, 2-[2-[N-(Benzoxazol-2-yl)-N-2-nitrobenzyl]aminoethylthio]benzoic acid]	0.3
CCCCCCCCN(CCCCCS(=O)(=O)c1ccccc1C(=O)O)c1nc2ccccc2o1 [Example 122, 2-[5-[N-(Benzoxazol-2-yl)-N-n-octyl]aminopentylsulfonyl]benzoic acid]	0.2
CCCCCCN(CCCCOc1ccc(C(=O)O)cc1)c1nc2ccccc2o1 [Example 60, 4-[4-[N-(Benzoxazol-2-yl)-N-n-hexyl]aminobutoxy]benzoic acid]	0.1
O=C(O)c1ccccc1OCCCCN(CCOc1ccccc1)c1nc2ccccc2o1 [Example 52, 2-[4-[N-(Benzoxazol-2-yl)-N-2-phenoxyethyl]aminobutoxy]benzoic acid]	0.1
CCCCCCN(CCCCSc1ccccc1C(=O)O)c1nc2ccccc2o1 [Example 93, 2-[4-[N-(Benzoxazol-2-yl)-N-n-hexyl]aminobutylthio]benzoic acid]	0.4
CN(CCCCSc1ccccc1C(=O)O)c1nc2ccccc2s1 [Example 109, 2-[4-[N-(Benzothiazol-2-yl)-N-methyl]aminobutylthio]benzoic acid]	0.2
CCCCCCCCN(CCSc1ccccc1C(=O)O)c1nc2ccccc2o1 [Example 78, 2-[2-[N-(Benzoxazol-2-yl)-N-n-octyl]aminoethylthio]benzoic acid]	0.2
CCCCCCCN(CCCOc1cccc(C(=O)O)c1)c1nc2ccccc2o1 [Example 19, 3-[3-[N-(Benzoxazol-2-yl)-N-n-heptyl]aminopropoxy]benzoic acid]	0.5
CCN(CCCCCSc1ccccc1C(=O)O)c1nc2ccccc2o1 [Example 99, 2-[5-[N-(Benzoxazol-2-yl)-N-ethyl]aminopentylthio]benzoic acid]	0.3
